Measured values from patent US20240058464A1 (Fortis Therapeutics, Inc., priority 2021, published 2024).

How the values were obtained:
CD46 expression [1] = assay: CD46 expression by RNA-sequencing in unpaired pre-treatment and post-treatment tumor biopsies; assay type: in vivo, human; settings: for CD46 expression Post: post-treatment biopsies
CD46 expression [2] = assay: CD46 expression by RNA-sequencing in paired tumor biopsies before and after therapy; settings: paired biopsies; for CD46 expression, Post-Treatment Biopsy / CD46 expression, Pre-Treatment Biopsy: RNA-seq log2-transformed counts;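 for all read-outs here: FFPE human tumor biopsies, exome-capture RNA-seq, reads aligned to GRCh37, counts normalized for GC content, length and depth, summed per gene, log2-transformed, samples paired before versus after therapy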
Description: Gene expression was determined by RNA-sequencing from formalin-fixed, paraffin-embedded (FFPE) tumor samples using an exome capture-based protocol. Briefly, total nucleic acid was extracted from FFPE solid tumor samples. The RNA sample was treated with DNAse and reverse transcribed. cDNA was captured with a custom probe set targeting the human exome. A library was prepared from the captured cDNA and sequenced on the Illumina platform. Sequence read were aligned to GRCh37 using Kallisto and normalized to quantify gene expression. Specifically, transcript counts were corrected for GC content and length using quantile normalization and adjusted for sequencing depth via a size factor method. Normalized counts in protein coding transcripts covered by the exome panel were then summed to obtain gene-level counts. Subsequent expression analyses were performed on log2-transformed counts.

[3] = Breast Cancer, Post minus Pre, unpaired biopsies, log2-transformed counts
[4] = Breast Cancer, post- vs pre-treatment unpaired biopsies
[5] = Breast Cancer, unpaired, RNA-seq log2-transformed normalized counts
[6] = Non-Small Cell Lung Cancer, Post minus Pre, unpaired biopsies, log2-transformed counts
[7] = Non-Small Cell Lung Cancer, post- vs pre-treatment unpaired biopsies
[8] = Ovarian Cancer, Post minus Pre, unpaired biopsies, log2-transformed counts
[9] = Ovarian Cancer, post- vs pre-treatment unpaired biopsies
[10] = Ovarian Cancer, unpaired, RNA-seq log2-transformed normalized counts
[11] = Sarcoma, Post minus Pre, unpaired biopsies, log2-transformed counts
[12] = Sarcoma, post- vs pre-treatment unpaired biopsies
[13] = Sarcoma, unpaired, RNA-seq log2-transformed normalized counts

## N.N.[Cl][Pt][Cl] [cisplatin]
CD46 expression [1]; Biliary Cancer, Post minus Pre, unpaired biopsies, log2-transformed counts
  CD46 expression diff: −0.06
CD46 expression [1]; Biliary Cancer, post- vs pre-treatment unpaired biopsies
  CD46 expression Percentage change: −1.0%
CD46 expression [1]; Biliary Cancer, unpaired, RNA-seq log2-transformed normalized counts
  CD46 expression Post: 5.76
CD46 expression [1]; Bladder Cancer, post minus pre, unpaired biopsies
  CD46 expression diff: −0.19
CD46 expression [1]; Bladder Cancer, post vs pre, unpaired biopsies
  CD46 expression Percentage change: −3.1%
CD46 expression [1]; Bladder Cancer, log2-transformed RNA-seq counts
  CD46 expression Post: 6.00
CD46 expression [1]; Bladder Cancer, pre-treatment biopsies, log2-transformed RNA-seq counts
  CD46 expression Pre: 6.19
CD46 expression [1]; [3]
  CD46 expression diff: 0.02
CD46 expression [1]; [4]
  CD46 expression Percentage change: 0.3%
CD46 expression [1]; [5]
  CD46 expression Post: 5.98
CD46 expression [1]; Endometrial Cancer, Post minus Pre, unpaired biopsies, log2-transformed counts
  CD46 expression diff: 0.26
CD46 expression [1]; Endometrial Cancer, post- vs pre-treatment unpaired biopsies
  CD46 expression Percentage change: 4.6%
CD46 expression [1]; Endometrial Cancer, unpaired, RNA-seq log2-transformed normalized counts
  CD46 expression Post: 5.99
CD46 expression [1]; Head and Neck Squamous Cell Carcinoma, Post minus Pre, unpaired biopsies, log2-transformed counts
  CD46 expression diff: 0.13
CD46 expression [1]; Head and Neck Squamous Cell Carcinoma, post- vs pre-treatment unpaired biopsies
  CD46 expression Percentage change: 2.4%
CD46 expression [1]; Head and Neck Squamous Cell Carcinoma, unpaired, RNA-seq log2-transformed normalized counts
  CD46 expression Post: 5.69
CD46 expression [1]; [6]
  CD46 expression diff: −0.05
CD46 expression [1]; [7]
  CD46 expression Percentage change: −0.8%
CD46 expression [1]; Non-Small Cell Lung Cancer, unpaired, RNA-seq log2-transformed normalized counts
  CD46 expression Post: 6.11
CD46 expression [1]; [8]
  CD46 expression diff: 0.03
CD46 expression [1]; [9]
  CD46 expression Percentage change: 0.6%
CD46 expression [1]; [10]
  CD46 expression Post: 5.79
CD46 expression [1]; Pancreatic Cancer, Post minus Pre, unpaired biopsies, log2-transformed counts
  CD46 expression diff: 0.18
CD46 expression [1]; Pancreatic Cancer, post- vs pre-treatment unpaired biopsies
  CD46 expression Percentage change: 3.1%
CD46 expression [1]; Pancreatic Cancer, unpaired, RNA-seq log2-transformed normalized counts
  CD46 expression Post: 6.16
CD46 expression [1]; [11]
  CD46 expression diff: 0.19
CD46 expression [1]; [12]
  CD46 expression Percentage change: 3.9%
CD46 expression [1]; [13]
  CD46 expression Post: 5.02
CD46 expression [1]; head and neck squamous cell carcinoma, unpaired biopsies, FIG. 7
  CD46 expression after treatment vs pre-treatment: significantly higher
CD46 expression [2]; Biliary Cancer
  CD46 expression diff (post minus pre): 0.15
  Percent Change in CD46 expression: 2.6%
  CD46 expression, Post-Treatment Biopsy: 5.97
  CD46 expression, Pre-Treatment Biopsy: 5.82
CD46 expression [2]; Bladder Cancer
  CD46 expression diff (post minus pre): 0.10
  Percent Change in CD46 expression: 1.6%
  CD46 expression, Pre-Treatment Biopsy: 6.15
CD46 expression [2]; Non-Small Cell Lung Cancer
  CD46 expression diff (post minus pre): −0.45
  Percent Change in CD46 expression: −7.2%
  CD46 expression, Post-Treatment Biopsy: 5.85

## CCc1c2c(nc3ccc(OC(=O)N4CCC(N5CCCCC5)CC4)cc13)-c1cc3c(c(=O)n1C2)COC(=O)[C@]3(O)CC [irinotecan]
CD46 expression [1]; Biliary Cancer, post minus pre, unpaired biopsies
  CD46 expression diff: −0.14
CD46 expression [1]; Biliary Cancer, post vs pre, unpaired biopsies
  CD46 expression Percentage change: −2.3%
CD46 expression [1]; Biliary Cancer, log2-transformed RNA-seq counts
  CD46 expression Post: 5.88
CD46 expression [1]; Colorectal Cancer, Post minus Pre, unpaired biopsies, log2-transformed counts
  CD46 expression diff: 0.16
CD46 expression [1]; Colorectal Cancer, post- vs pre-treatment unpaired biopsies
  CD46 expression Percentage change: 2.5%
CD46 expression [1]; Colorectal Cancer, unpaired, RNA-seq log2-transformed normalized counts
  CD46 expression Post: 6.54
CD46 expression [1]; Pancreatic Cancer, post minus pre, unpaired biopsies
  CD46 expression diff: −0.14
CD46 expression [1]; Pancreatic Cancer, post vs pre, unpaired biopsies
  CD46 expression Percentage change: −2.5%
CD46 expression [1]; Pancreatic Cancer, log2-transformed RNA-seq counts
  CD46 expression Post: 5.76
CD46 expression [1]; colorectal cancer, unpaired biopsies, FIG. 5
  CD46 expression after treatment vs pre-treatment: significantly higher
CD46 expression [2]; Colorectal Cancer
  CD46 expression diff (post minus pre): 0.16
  Percent Change in CD46 expression: 2.5%
  CD46 expression, Post-Treatment Biopsy: 6.48
CD46 expression [2]; Pancreatic Cancer
  CD46 expression diff (post minus pre): −0.01
  Percent Change in CD46 expression: −0.1%
  CD46 expression, Post-Treatment Biopsy: 5.93

## C=CC(=O)Nc1cc(Nc2nccc(-c3cn(C)c4ccccc34)n2)c(OC)cc1N(C)CCN(C)C [osimertinib]
CD46 expression [1]; Non-Small Cell Lung Cancer, post minus pre, unpaired biopsies
  CD46 expression diff: −0.29
CD46 expression [1]; Non-Small Cell Lung Cancer, post vs pre, unpaired biopsies
  CD46 expression Percentage change: −4.4%
CD46 expression [1]; Non-Small Cell Lung Cancer, log2-transformed RNA-seq counts
  CD46 expression Post: 6.23
CD46 expression [2]; Non-Small Cell Lung Cancer
  CD46 expression diff (post minus pre): −0.26
  Percent Change in CD46 expression: −4.0%

## O=P1(NCCCl)OCCCN1CCCl (centres unmarked) [ifosfamide]
CD46 expression [1]; [11]
  CD46 expression diff: 0.17
CD46 expression [1]; [12]
  CD46 expression Percentage change: 3.4%
CD46 expression [1]; [13]
  CD46 expression Post: 5.07
CD46 expression [2]; Sarcoma
  CD46 expression diff (post minus pre): 0.32
  Percent Change in CD46 expression: 6.7%
  CD46 expression, Post-Treatment Biopsy: 5.08

## CC(=O)O[C@@]12CO[C@@H]1C[C@H](O)[C@@]1(C)C(=O)[C@H](O)C3=C(C)[C@@H](OC(=O)[C@H](O)[C@@H](NC(=O)OC(C)(C)C)c4ccccc4)C[C@@](O)([C@@H](OC(=O)c4ccccc4)[C@H]21)C3(C)C [docetaxel]
CD46 expression [1]; [3]
  CD46 expression diff: 0.04
CD46 expression [1]; [4]
  CD46 expression Percentage change: 0.7%
CD46 expression [1]; [5]
  CD46 expression Post: 6.23
CD46 expression [1]; Gastric Cancer, post minus pre, unpaired biopsies
  CD46 expression diff: −0.17
CD46 expression [1]; Gastric Cancer, post vs pre, unpaired biopsies
  CD46 expression Percentage change: −3.0%
CD46 expression [1]; Gastric Cancer, log2-transformed RNA-seq counts
  CD46 expression Post: 5.59
CD46 expression [1]; [6]
  CD46 expression diff: 0.02
CD46 expression [1]; [7]
  CD46 expression Percentage change: 0.3%
CD46 expression [1]; [8]
  CD46 expression diff: 0.12
CD46 expression [1]; [9]
  CD46 expression Percentage change: 2.1%
CD46 expression [1]; [10]
  CD46 expression Post: 5.88
CD46 expression [1]; Prostate Cancer, Post minus Pre, unpaired biopsies, log2-transformed counts
  CD46 expression diff: −0.14
CD46 expression [1]; Prostate Cancer, post- vs pre-treatment unpaired biopsies
  CD46 expression Percentage change: −2.2%
CD46 expression [1]; Prostate Cancer, unpaired, RNA-seq log2-transformed normalized counts
  CD46 expression Post: 6.02
CD46 expression [1]; Sarcoma, post minus pre, unpaired biopsies
  CD46 expression diff: −0.14
CD46 expression [1]; Sarcoma, post vs pre, unpaired biopsies
  CD46 expression Percentage change: −2.8%
CD46 expression [1]; Sarcoma, log2-transformed RNA-seq counts
  CD46 expression Post: 5.00
CD46 expression [2]; Breast Cancer
  CD46 expression diff (post minus pre): 0.22
  Percent Change in CD46 expression: 3.7%
  CD46 expression, Post-Treatment Biopsy: 6.19
CD46 expression [2]; Prostate Cancer
  CD46 expression diff (post minus pre): −0.03
  Percent Change in CD46 expression: −0.4%
  CD46 expression, Post-Treatment Biopsy: 5.76

## CC/C(=C(\c1ccccc1)c1ccc(OCCN(C)C)cc1)c1ccccc1 [tamoxifen]
CD46 expression [1]; [3]
  CD46 expression diff: 0.11
CD46 expression [1]; [4]
  CD46 expression Percentage change: 1.8%
CD46 expression [1]; [5]
  CD46 expression Post: 6.38
CD46 expression [2]; Breast Cancer
  CD46 expression diff (post minus pre): 0.11
  Percent Change in CD46 expression: 1.7%
  CD46 expression, Post-Treatment Biopsy: 6.32
